Reference: ChEMBL document CHEMBL3046720, “Molecular properties of fatty acids related to PPAR binding and metabolic diseases” (Med Chem Res, 2013)

Tests used:
[1] = molecular target: T1, Peroxisome proliferator-activated receptor delta (Homo sapiens, UniProt Q03181); assay: Displacement of [3H]GW2433 from Homo sapiens (human) PPARdelta receptor by scintillation proximity assay
T1 sequence (Q03181 whole entry): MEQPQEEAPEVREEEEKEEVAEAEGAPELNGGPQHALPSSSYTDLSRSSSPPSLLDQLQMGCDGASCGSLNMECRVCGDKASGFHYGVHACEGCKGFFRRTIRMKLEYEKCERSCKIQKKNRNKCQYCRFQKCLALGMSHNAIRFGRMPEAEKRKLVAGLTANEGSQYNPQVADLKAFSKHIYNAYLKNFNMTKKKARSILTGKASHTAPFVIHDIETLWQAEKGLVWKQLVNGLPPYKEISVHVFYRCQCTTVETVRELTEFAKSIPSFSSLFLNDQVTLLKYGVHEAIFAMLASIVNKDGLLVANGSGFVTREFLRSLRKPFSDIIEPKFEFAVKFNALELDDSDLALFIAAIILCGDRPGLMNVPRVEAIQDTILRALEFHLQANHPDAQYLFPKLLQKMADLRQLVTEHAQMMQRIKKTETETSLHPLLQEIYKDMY

[2] = molecular target: T2, Peroxisome proliferator-activated receptor gamma (Homo sapiens, UniProt P37231); assay: Displacement of [3H]BRL49653 from Homo sapiens (human) PPARgamma receptor by scintillation proximity assay
T2 sequence (P37231 whole entry): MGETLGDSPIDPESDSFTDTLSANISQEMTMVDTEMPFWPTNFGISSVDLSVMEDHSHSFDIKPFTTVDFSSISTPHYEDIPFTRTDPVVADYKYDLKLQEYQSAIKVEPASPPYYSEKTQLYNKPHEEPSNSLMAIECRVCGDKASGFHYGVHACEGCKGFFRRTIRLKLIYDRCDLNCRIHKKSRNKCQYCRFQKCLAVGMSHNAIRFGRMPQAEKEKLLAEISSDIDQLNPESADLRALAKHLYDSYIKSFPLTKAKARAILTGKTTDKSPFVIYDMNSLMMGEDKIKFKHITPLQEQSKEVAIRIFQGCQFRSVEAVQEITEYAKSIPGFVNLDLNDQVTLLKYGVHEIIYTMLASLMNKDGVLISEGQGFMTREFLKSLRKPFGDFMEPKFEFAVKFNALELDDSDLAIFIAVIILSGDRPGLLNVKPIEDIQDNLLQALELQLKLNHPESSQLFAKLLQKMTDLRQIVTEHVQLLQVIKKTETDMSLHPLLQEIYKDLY

[3] = molecular target: T3, Peroxisome proliferator-activated receptor alpha (Homo sapiens, UniProt Q07869); assay: Displacement of [3H]GW2331 from Homo sapiens (human) PPARalpha receptor by scintillation proximity assay
T3 sequence (Q07869 whole entry): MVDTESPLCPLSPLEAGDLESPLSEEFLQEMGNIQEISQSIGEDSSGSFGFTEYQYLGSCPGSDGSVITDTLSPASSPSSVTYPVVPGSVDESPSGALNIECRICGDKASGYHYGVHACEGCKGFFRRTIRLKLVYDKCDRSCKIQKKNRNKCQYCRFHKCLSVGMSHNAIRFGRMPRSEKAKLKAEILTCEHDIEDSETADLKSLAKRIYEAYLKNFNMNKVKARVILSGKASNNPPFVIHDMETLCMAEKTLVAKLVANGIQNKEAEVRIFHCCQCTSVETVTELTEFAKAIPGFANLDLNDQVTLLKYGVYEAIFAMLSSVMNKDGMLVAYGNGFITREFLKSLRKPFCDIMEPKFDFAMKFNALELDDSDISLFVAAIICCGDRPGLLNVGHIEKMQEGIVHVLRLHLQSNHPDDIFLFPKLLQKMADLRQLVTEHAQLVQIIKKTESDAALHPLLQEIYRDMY

SMILES	IC50 [1] [µM]	IC50 [2] [µM]	IC50 [3] [µM]
CCCCCCCCCCCC(=O)O [DODECANOATE]	> 30		> 30
CCCCCCCCCC(=O)O [DECANOIC ACID]	> 30	30	> 30
CCCCCCCCCCCCCCCCCCCC(=O)O [ARACHIDIC ACID]	> 30		> 30
CCCCCCCCCCCCCCCCCCCCCC(=O)O [BEHENIC ACID]	> 30		> 30
CCCCCCCCCCCCCCCCCC(=O)O [STEARIC ACID]			1.1
CCCCCCCC/C=C\CCCCCCCCCCCC(=O)O [ERUCIC ACID]	> 30		> 30
CCCCCCCCCCCCCCCC(=O)O [PALMITIC ACID]			1.5
CCCCC/C=C\C/C=C\C/C=C\C/C=C\CCCC(=O)O [ARACHIDONIC ACID]	3.1	1.6	
CCCCCCCCCCCCCC(=O)O [MYRISTIC ACID]		21	5.4

Continued by falling IC50 [1], values first:

IC50 [1] [µM]	IC50 [2] [µM]	IC50 [3] [µM]	SMILES
16			CC/C=C\C/C=C\C/C=C\CCCCCCCC(=O)O [LINOLENIC ACID]
10	6.2		CCCCC/C=C\C/C=C\CCCCCCCC(=O)O [LINOLEIC ACID]
9.6	6.4		CCCCCC/C=C\CCCCCCCC(=O)O [PALMITOLEIC ACID]
5.3	4.1		CCCCCCCC/C=C\CCCCCCCC(=O)O [OLEIC ACID]
4.3	2.4		CCCCC/C=C\C/C=C\C/C=C\CCCCCCC(=O)O [DIHOMO-GAMMA-LINOLENIC ACID]
4	1.6		CC/C=C\C/C=C\C/C=C\C/C=C\C/C=C\CCCC(=O)O [ICOSAPENT]
0.75			CCCCC/C=C\C/C=C\C/C=C\CCCCC(=O)O [GAMOLENIC ACID]
